US12329755B2, “Bromodomain inhibitors to target therapy-resistant cancer” (University of Tennessee Research Foundation, priority 2019, dated 2025)
“Also recorded” adds a separate entry of the source.

Experiments:
[1] = test system: GBM cells; test: survival of mice after intracranial injection of GBM cells; format: in vivo; conditions: combination with TMZ, intraperitoneal, 10 mg/kg body weight
Method: FIG. 6 is a graph showing the survival curves (percent survival versus days after treatment) of mice after intracranial injection of glioblastoma (GBM) cells and intraperitoneal injection of temozolomide (TMZ) or combinations of TMZ and a Brahma-related gene-1 bromodomain inhibitors (BRIs): PFI-3 or one of the presently disclosed PFI-3 analogs (PAs) IV-073 or IV-085. Five mice per group were treated with TMZ with or without the BRI (10 milligrams per kilogram (mg/kg) body weight.
TMZ with or without a BRI was also tested in mice after intercranial injection of GBM cells.

[2] = test system: LN229 TMZ-resistant glioma cell line; test: IncuCyte live cell imaging proliferation assay; format: cell-based; conditions: for sensitization to TMZ: BRI 1 μM combined with 100 μM TMZ; for effect on cell growth: BRI alone (1 μM)
Method: (§1) FIG. 2A is a graph showing relative growth of temozolomide (TMZ)-resistant glioma cells (LN229 cells) alone (control); after treatment with 100 micromolar (μM) TMZ; after treatment with a Brahma-related gene-1 bromodomain inhibitor (BRI), PFI-3 (1 μM); or after treatment with both TMZ and PFI-3 (combined).
as §1, with “2B” for “2A”, “IV-073” for “PFI-3”
as §1, with “2C” for “2A”, “LN229 Temozolomide” for “temozolomide”, “cells” for “cells (LN229 cells)”, “IV-077” for “PFI-3”
as §1, with “2D” for “2A”, “LN229 Temozolomide” for “temozolomide”, “cells” for “cells (LN229 cells)”, “IV-085” for “PFI-3”
To determine whether PFI-3 (also called YH-IV-081) and its analogs (referred to herein as “PAs”) enhanced TMZ sensitivity IncuCyte live cell imaging proliferation assays (high throughput system) were performed with the LN229 TMZ-resistant glioma cell line.

[3] = test system: GBM cells; test: overall statements on GBM cell death and sensitization to TMZ; format: cell-based; conditions: for sensitizing activity to TMZ compared to PFI-3: in vitro and in an animal model of GBM; for GBM cell death: used alone
Source text: The syntheses of two exemplary PA BRIs, referred to herein as YH-IV-073 (or IV-073), and YH-IV-077 (or IV-077), as well as of PFI-3 (also referred to herein as YH-IV-081), are shown in Scheme 2, below. As shown in Scheme 2, commercially available tert-butyloxycarbonyl (BOC)-protected amine 1 is contacted with 2-bromopyridine (2) to form intermediate 3. The protecting group can be removed (e.g., via hydrolysis) to give the corresponding amine 4. Compound 4 can be coupled with a carboxylic acid (5, 6, or 7) to afford target YH-IV-073, YH-IV-077 and YH-IV-081, respectively. […] These analogs will provide greater insight into the importance of substitution of the A ring.
The synthetic route shown in Scheme 3, below, was used to synthesize new analogs with different substituents in the 2-position of the A-ring, such as YH-IV-085. As shown in Scheme 3, a commercially available 1-phenylprop-2-yn-1-one (e.g., 8 or 9) can be reacted with BOC-protected amine compound 1 to afford a BOC-protected intermediate (e.g., 10 or 11), which can be hydrolyzed to provide corresponding deprotected intermediate (12 or 13). The intermediates can be coupled with the 2-bromopyridine (2) to yield target compounds (e.g., 14 or YH-IV-085), respectively. YH-IV-085 is believed to be the first PFI-3 analog prepared without a 2-hydroxy moiety in the A-ring.

[4] = test system: X16 BTIC; test: X16 BTIC mouse flank xenografts; format: in vivo, mice; conditions: combined with TMZ; for tumor growth: 2 weeks post-treatment, compared with PFI-3 and TMZ, BRI 0.5 μg/mouse, TMZ 0.25 mg/mouse IP alternate days
Method: FIG. 1F is a graph showing the effect of temozolomide (TMZ) on the tumorigenicity of control (black portion of bars) and Brahma-related gene-1-knock-down (BRG1-KD) (grey portion of bars) brain-tumor initiating cells (BTICs) after injection of 10^6 tumor cells into the flanks of immunodeficient mice. Live animal imaging preformed at weekly intervals. After confirming tumor initiation by live animal imaging, mice were treated with TMZ by interperitoneal (IP) injection (10 milligrams per kilogram (mg/kg) on alternate days). The reduction in tumor volume was calculated at 1 week (left) and 2 weeks (right) post-treatment. *p≤0.05.
FIG. 5 is a graph showing the effect of Brahma-related gene-1 bromodomain inhibitors (BRIs), PFI-3 and the PFI-3 analogs (PAs) IV-073, IV-077, and IV-085, on the anticancer activity of temozolomide (TMZ) on brain-tumor initiating-cell (BTIC) tumor growth. BTICs (10^6 cells) from X16 glioblastoma were injected into the flanks of immunodeficient mice. After confirming tumor initiation by live animal imaging, mice were treated with PFI-3 or a PA (0.5 microgram per mouse (μg/mouse)) and TMZ (0.25 mg/mouse) by intrarperitoneal (IP) injection on alternate days. The reduction in tumor volume was calculated at 2 weeks post-treatment.
BRG1 loss sensitizes BTICs to TMZ in vitro and in vivo: Although the alkylating agent TMZ is front-line chemotherapy in the treatment of GBM, a significant clinical problem is intrinsic or adaptive resistance to TMZ.^63 To evaluate TMZ sensitivity, GBM6 or X16 BTICs were treated with 300 μM or 500 μM TMZ, and cell proliferation was determined. […] Since BRG1 has been implicated in DNA double-strand break repair,^65-67 it was hypothesized that BRG1 loss in BTICs would sensitize BTICs to TMZ. […] To determine whether BRG1-KD sensitized BTICs to TMZ in vivo, animal studies were conducted with control (scrambled shRNA) and BRG1-KD X16 BTICs injected into the flanks of NSG mice. After tumor initiation was confirmed by live animal imaging, mice were treated with TMZ. […] Thus, despite X16 BRG1-KD BTICs producing larger tumors, the tumors were sensitized to TMZ therapy.
In contrast, all mice with single drug treatment had to be euthanized because the tumors had reached […] by 3 weeks post-treatment.

[5] = test system: X10 BTICs; conditions: X10 BTICs; cited from earlier work
[6] = test system: X16 BTICs; conditions: X16 BTICs; cited from earlier work
[7] = target: T1, GFP-tagged bromodomain of BRG1 (GFP-BRG1 BRD) (Homo sapiens, UniProt P51532); test: nuclear localization of fluorescently tagged BRG1 bromodomain in MT330 GBM cells; format: cell-based; conditions: PFI-3 10 or 30 μM; IV-073 5, 10 or 30 μM; compared to DMSO
T1 construct: a fluorescently tagged bromodomain of BRG1 expressed in MT330 GBM cells; expressed in transfected cells; host or cells: MT330 GBM cells
T1 sequence (P51532 1453-1564 limits assumed): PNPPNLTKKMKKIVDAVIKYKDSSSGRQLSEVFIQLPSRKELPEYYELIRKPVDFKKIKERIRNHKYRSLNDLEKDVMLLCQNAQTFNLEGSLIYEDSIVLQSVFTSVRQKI
Source text: FIG. 4 is a series of fluorescence microscopy images showing the effects of Brahma-related gene-1 bromodomain inhibitors (BRIs) on the nuclear localization of a green fluorescent protein (GFP)-tagged bromodomain of Brahma-related gene-1 (GFP-BRG1 BRD).
The effects of PFI-3 and its analogs on the nuclear localization of a fluorescently tagged bromodomain of BRG1 expressed in MT330 GBM cells was studied. In the control samples, the fluorescent bromodomain is localized to the nucleus. However, an inhibitor displaces it from the nucleus and the fluorescence signal markedly decreases because it is degraded in the cytoplasm.

[8] = target: T2, bromodomain of BRG1 (Homo sapiens, UniProt P51532); test: thermal shift assay of the BRG1 bromodomain in MT330 GBM cells; format: binding; conditions: 44.5° C. to 55.6° C.; PFI-3 30 μM, IV-073 20 μM, two hours; compared to DMSO
T2 construct: The assay involved the use of the bromodomain of BRG1 in MT330 GBM cells; expressed in transfected cells; host or cells: MT330 GBM cells
T2 sequence (P51532 1453-1564 limits assumed): as above
Method: FIG. 3 is a series of immunoblot images showing the effects of Brahma-related gene-1 bromodomain inhibitors (BRIs) on the stability of the bromodomain of Brahma-related gene-1 in a thermal assay shift of the bromodomain in glioblastoma cells over a temperature range from 44.5 degrees Celsius (° C.) to 55.6° C. Cells were treated with (middle) PFI-3 (30 micromolar (μM)) for two hours or (right), a PFI-3 analog of the presently disclosed subject matter (IV-073) (20 μM) for two hours. For comparison, control cells treated with dimethyl sulfoxide (DMSO) are shown at […].
To further study the activity of the presently disclosed PFI-3 analogs, a thermal shift assay was employed. The assay involved the use of the bromodomain of BRG1 in MT330 GBM cells at temperatures ranging from 44.5° C. to 55.6° C.

Row | SMILES | animal survival [1] | sensitization to TMZ [2] | effect on cell growth [2] | sensitizing activity to TMZ compared to PFI-3 [3] | GBM cell death [3] | tumor growth [4] | tumors after treatment for 8 weeks [4] | Carmustine sensitivity [5] | Carmustine sensitivity [6] | sensitizing activity to TMZ compared to PFI-3 ([3]; listed as YH-IV-073) | displacement of the BRG1 bromodomain from the nucleus [7] | stabilization of the BRG1 bromodomain [8]
1 | O=C(/C=C/N1C[C@H]2C[C@@H]1CN2c1ccccn1)c1ccccc1Cl [IV-085, (E)-1-(2-chlorophenyl)-3-((1R,4R)-5-(pyridin-2-yl)-2,5-diazabicyclo [2.2.1]heptan-2-yl) prop-2-en-1-one] | greatest effect | potently sensitized | relatively minor effects on cell growth | significantly improved sensitizing activity | do not cause GBM cell death | marked effect on tumor growth | only small tumors were detectable |  |  |  |  | 
2 | O=NN(CCCl)C(=O)NCCCl [Carmustine] |  |  |  |  |  |  |  | highly resistant | highly resistant |  |  | 
3 | O=C(/C=C/N1C[C@H]2C[C@@H]1CN2c1ccccn1)c1cc(F)ccc1O [IV-073, (E)-1-(5-fluoro-2-hydroxyphenyl)-3-((1R,4R)-5-(pyridin-2-yl)-2,5-diazabicyclo[2.2.1]heptan-2-yl)prop-2-en-1-one] |  | potently sensitized | relatively minor effects on cell growth |  | do not cause GBM cell death | marked effect on tumor growth | only small tumors were detectable |  |  | significantly improved sensitizing activity; also recorded: better efficacy | more effective in displacing the bromodomain | more effective in stabilizing the bromodomain
4 | O=C(/C=C/N1C[C@H]2C[C@@H]1CN2c1ccccn1)c1ccc(Cl)cc1O [IV-077, (E)-1-(4-chloro-2-hydroxyphenyl)-3-((1R,4R)-5-(pyridin-2-yl)-2,5-diazabicyclo[2.2.1]heptan-2-yl)prop-2-en-1-one] |  | potently sensitized | relatively minor effects on cell growth | significantly improved sensitizing activity | do not cause GBM cell death |  |  |  |  |  |  | 
